Results published in ChEMBL document CHEMBL6127078, “Discovery of 7-(1-methyl-1H-pyrazol-4-yl)-1,6-naphthyridine derivatives as potent inhibitors of rearranged during transfection (RET) and RET solvent-front mutants for overcoming selpercatinib resistance” (Eur J Med Chem, 2024).

Experiments:
[1] = target: Proto-oncogene tyrosine-protein kinase receptor Ret (Homo sapiens, UniProt P07949); assay: Inhibition of wild type RET (unknown origin) by FRET-based ZLyte kinase assay
[2] = target: Proto-oncogene tyrosine-protein kinase receptor Ret (Homo sapiens, UniProt P07949, V804L); assay: Inhibition of RET V804L mutant (unknown origin) by FRET-based ZLyte kinase assay
[3] = target: Proto-oncogene tyrosine-protein kinase receptor Ret (Homo sapiens, UniProt P07949, M918T); assay: Inhibition of RET M918T mutant (unknown origin) by FRET-based ZLyte kinase assay
[4] = target: Proto-oncogene tyrosine-protein kinase receptor Ret (Homo sapiens, UniProt P07949, G810R); assay: Inhibition of RET G810R mutant (unknown origin) by FRET-based ZLyte kinase assay
[5] = system: Proto-oncogene tyrosine-protein kinase receptor Ret (Homo sapiens), P07949 [G810R]; assay: Potency index, ratio of Vandetanib IC50 to test compound IC50 for inhibition of RET G810R mutant (unknown origin) by FRET-based ZLyte kinase assay
[6] = system: Proto-oncogene tyrosine-protein kinase receptor Ret (Homo sapiens), P07949 [V804L]; assay: Potency index, ratio of Vandetanib IC50 to test compound IC50 for inhibition of RET V804L mutant (unknown origin) by FRET-based ZLyte kinase assay
[7] = system: Proto-oncogene tyrosine-protein kinase receptor Ret (Homo sapiens), P07949 [G810R]; assay: Potency index, ratio of selpercatinib IC50 to test compound IC50 for inhibition of RET G810R mutant (unknown origin) by FRET-based ZLyte kinase assay
BaF3 [8] = assay: Antiproliferative activity against mouse BaF3 cells harbouring KIF5B-RET wild type assessed as inhibition of cell viability; format: functional, cell-based
BaF3 [9] = assay: Antiproliferative activity against mouse BaF3 cells harbouring CCDC6-RET wild type assessed as inhibition of cell viability; format: functional, cell-based
BaF3 [10] = assay: Antiproliferative activity against mouse BaF3 cells harbouring KIF5B-RET V804L mutant assessed as inhibition of cell viability; format: functional, cell-based
BaF3 [11] = assay: Antiproliferative activity against mouse BaF3 cells harbouring KIF5B-RET G810R mutant assessed as inhibition of cell viability; format: functional, cell-based
BaF3 [12] = assay: Antiproliferative activity against mouse BaF3 cells harbouring CCDC6-RET G810R mutant assessed as inhibition of cell viability; format: functional, cell-based
BaF3 [13] = assay: Antitumor activity against mouse BaF3 cells harbouring KIF5B-RET-wild type xenografted in mouse model assessed as tumor growth inhibition at 10 mg/kg BID measured upto 14 days relative to control; format: functional; conditions: BaF3, 336 h, time <= 14 day, read-out: TGI
BaF3 [14] = assay: Antitumor activity against mouse BaF3 cells harbouring KIF5B-RET G810R mutant xenografted in mouse model assessed as tumor growth inhibition at 10 mg/kg BID measured upto 14 days relative to control; format: functional; conditions: BaF3, 336 h, time <= 14 day, read-out: TGI

Sequence of Proto-oncogene tyrosine-protein kinase receptor Ret (Homo sapiens, UniProt P07949, M918T) (P07949 29-1114 M918T limits assumed): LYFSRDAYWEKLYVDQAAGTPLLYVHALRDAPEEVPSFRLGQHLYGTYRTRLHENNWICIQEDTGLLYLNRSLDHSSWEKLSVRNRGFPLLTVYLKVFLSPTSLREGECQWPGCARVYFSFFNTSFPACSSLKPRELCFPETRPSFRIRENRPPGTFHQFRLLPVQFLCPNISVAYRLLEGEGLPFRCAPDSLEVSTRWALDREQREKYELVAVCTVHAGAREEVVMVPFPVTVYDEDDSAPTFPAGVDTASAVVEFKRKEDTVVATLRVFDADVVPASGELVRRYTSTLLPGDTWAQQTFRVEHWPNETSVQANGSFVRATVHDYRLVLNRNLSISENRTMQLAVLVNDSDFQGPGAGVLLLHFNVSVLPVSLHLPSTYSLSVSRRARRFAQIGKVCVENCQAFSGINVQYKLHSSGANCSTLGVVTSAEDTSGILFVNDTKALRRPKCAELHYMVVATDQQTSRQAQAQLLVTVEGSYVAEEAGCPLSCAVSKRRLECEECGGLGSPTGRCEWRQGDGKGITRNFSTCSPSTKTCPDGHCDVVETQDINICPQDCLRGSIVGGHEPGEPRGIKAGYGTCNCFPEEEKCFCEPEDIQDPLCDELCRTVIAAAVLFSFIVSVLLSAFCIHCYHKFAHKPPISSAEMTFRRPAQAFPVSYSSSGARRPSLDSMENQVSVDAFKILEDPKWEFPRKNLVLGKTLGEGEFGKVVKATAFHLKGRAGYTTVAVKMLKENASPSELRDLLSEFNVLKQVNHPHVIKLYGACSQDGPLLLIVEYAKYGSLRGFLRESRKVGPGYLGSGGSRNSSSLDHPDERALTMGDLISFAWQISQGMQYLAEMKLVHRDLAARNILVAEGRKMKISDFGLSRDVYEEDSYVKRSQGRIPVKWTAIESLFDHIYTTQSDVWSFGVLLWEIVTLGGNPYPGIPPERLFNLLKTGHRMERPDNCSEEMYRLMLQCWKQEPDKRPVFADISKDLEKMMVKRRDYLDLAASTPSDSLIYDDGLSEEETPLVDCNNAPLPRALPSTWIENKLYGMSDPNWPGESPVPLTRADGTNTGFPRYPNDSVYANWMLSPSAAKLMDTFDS
Sequence of Proto-oncogene tyrosine-protein kinase receptor Ret (Homo sapiens, UniProt P07949, V804L) (P07949 29-1114 V804L limits assumed): as the sequence (P07949 29-1114 M918T limits assumed) above, with V776L, T890M counted along it
Sequence of Proto-oncogene tyrosine-protein kinase receptor Ret (Homo sapiens), P07949 [G810R] (P07949 whole entry G810R): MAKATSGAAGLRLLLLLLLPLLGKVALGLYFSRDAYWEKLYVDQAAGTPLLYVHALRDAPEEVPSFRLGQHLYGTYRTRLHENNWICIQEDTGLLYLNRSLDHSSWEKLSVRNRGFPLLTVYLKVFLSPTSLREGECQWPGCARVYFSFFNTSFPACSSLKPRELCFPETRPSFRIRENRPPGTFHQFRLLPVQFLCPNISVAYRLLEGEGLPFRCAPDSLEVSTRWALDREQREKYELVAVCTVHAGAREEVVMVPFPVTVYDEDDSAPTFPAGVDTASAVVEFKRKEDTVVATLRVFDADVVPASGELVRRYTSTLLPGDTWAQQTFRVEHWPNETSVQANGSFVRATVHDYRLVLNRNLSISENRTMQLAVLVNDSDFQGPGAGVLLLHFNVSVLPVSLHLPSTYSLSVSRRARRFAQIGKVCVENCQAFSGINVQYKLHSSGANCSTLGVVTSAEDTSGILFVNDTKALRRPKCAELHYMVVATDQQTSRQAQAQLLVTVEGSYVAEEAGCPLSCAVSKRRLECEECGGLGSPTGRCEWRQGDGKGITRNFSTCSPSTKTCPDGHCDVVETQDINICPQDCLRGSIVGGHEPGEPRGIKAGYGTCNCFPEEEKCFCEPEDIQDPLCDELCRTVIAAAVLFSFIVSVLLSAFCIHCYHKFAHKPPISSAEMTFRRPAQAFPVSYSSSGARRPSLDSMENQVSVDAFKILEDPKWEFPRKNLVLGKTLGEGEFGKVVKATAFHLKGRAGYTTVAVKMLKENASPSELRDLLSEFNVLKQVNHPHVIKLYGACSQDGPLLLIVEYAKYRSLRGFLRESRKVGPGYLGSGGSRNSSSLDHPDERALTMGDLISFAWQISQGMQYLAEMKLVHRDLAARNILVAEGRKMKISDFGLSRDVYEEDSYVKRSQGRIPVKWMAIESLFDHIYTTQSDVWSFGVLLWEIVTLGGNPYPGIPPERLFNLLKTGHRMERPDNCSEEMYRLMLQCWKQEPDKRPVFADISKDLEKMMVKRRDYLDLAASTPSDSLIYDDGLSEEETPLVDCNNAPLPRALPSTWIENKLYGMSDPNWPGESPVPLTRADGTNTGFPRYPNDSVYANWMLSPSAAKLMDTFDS
Sequence of Proto-oncogene tyrosine-protein kinase receptor Ret (Homo sapiens, UniProt P07949) (P07949 whole entry): as the sequence (P07949 whole entry G810R) above, with R810G counted along it
Sequence of Proto-oncogene tyrosine-protein kinase receptor Ret (Homo sapiens, UniProt P07949, G810R) (P07949 29-1114 G810R limits assumed): as the sequence (P07949 29-1114 M918T limits assumed) above, with G782R, T890M counted along it
Sequence of Proto-oncogene tyrosine-protein kinase receptor Ret (Homo sapiens), P07949 [V804L] (P07949 whole entry V804L): as the sequence (P07949 whole entry G810R) above, with V804L, R810G counted along it

SMILES	IC50 [1]	IC50 [2]	IC50 [3]	IC50 [4]	further results
COc1ccc(CN2C3CC2CN(c2ccc(-c4nccc5ncccc45)cn2)C3)cn1	57.6 nM	42.2 nM	35.8 nM	186 nM	Ratio IC50 [5]: 4; Ratio IC50 [6]: 16
COc1ccc(CN2C3CC2CN(c2ccc(-c4nc(C5CC5)cc5ncccc45)cn2)C3)cn1	15.7 nM	12.5 nM	17.3 nM	538 nM	–
COc1ccc(CN2C3CC2CN(c2ccc(-c4nc(-c5cnn(C)c5)cc5ncccc45)cn2)C3)cc1Cl	25.1 nM	8.5 nM	11.3 nM	85.9 nM	–
COc1ccc(CN2C3CC2CN(c2ccc(-c4nc(-c5ccn(C)n5)cc5ncccc45)cn2)C3)cn1	49.4 nM	21.1 nM	50.4 nM	96.7 nM	–
COc1ccc(CN2C3CC2CN(c2ccc(-c4cccc5ncncc45)cn2)C3)cn1	86.3 nM	70.4 nM	91.5 nM	307 nM	–
COc1ccc(CN2C3CC2CN(c2ccc(-c4nc(-c5cc[nH]n5)cc5ncccc45)cn2)C3)cn1	68.2 nM	55.7 nM	49.7 nM	109 nM	–
COc1ccc(CN2C3CC2CN(c2ccc(-c4cccc5cnccc45)cn2)C3)cn1	591 nM	786 nM	615 nM	–	–
COc1ccc(CN2C3CC2CN(c2ccc(-c4nc(-c5cnn(C)c5)cc5ncccc45)cn2)C3)cc1	7.6 nM	3.1 nM	4.7 nM	114 nM	–
COc1ccc(CN2C3CC2CN(c2ccc(-c4nc(-c5cnn(C)c5)cc5ncccc45)cn2)C3)cc1C(F)(F)F	37.5 nM	22.6 nM	14.7 nM	116 nM	–
COc1ccc(CN2C3CC2CN(c2ccc(-c4nc(-c5cn[nH]c5)cc5ncccc45)cn2)C3)cn1	5.9 nM	1.1 nM	6.5 nM	69.1 nM	Ratio IC50 [7]: 4
COc1ccc(CN2C3CC2CN(c2ccc(-c4cccc5nccnc45)cn2)C3)cn1	172 nM	135 nM	141 nM	–	–
COc1ccc(CN2C3CC2CN(c2ccc(-c4nc(-c5cnn(C)c5)cc5ncccc45)cn2)C3)cn1	3.8 nM	0.4 nM	1.2 nM	56.2 nM	Ratio IC50 [7]: 4
COc1ccc(CN2C3CC2CN(c2ccc(-c4nc(C)cc5ncccc45)cn2)C3)cn1	28.5 nM	18.6 nM	33.6 nM	416 nM	–
Cn1cc(-c2cc3ncccc3c(-c3ccc(N4CC5CC(C4)N5Cc4ccc(Cl)nc4)nc3)n2)cn1	9.8 nM	2.3 nM	5.1 nM	361 nM	–
Cn1cc(-c2cc3ncccc3c(-c3ccc(N4CC5CC(C4)N5Cc4cccnc4)nc3)n2)cn1	26.7 nM	41.1 nM	33.5 nM	371 nM	–
COc1ccc(CN2C3CC2CN(c2ccc(-c4nc(-c5ccncc5)cc5ncccc45)cn2)C3)cn1	166 nM	328 nM	215 nM	–	–
COc1ccc(CC(=O)N2C3CC2CN(c2ccc(-c4nc(-c5cnn(C)c5)cc5ncccc45)cn2)C3)cn1	5.7 nM	2.6 nM	4.9 nM	132 nM	–

SMILES	IC50 [1]	IC50 [2]	IC50 [3]	IC50 [4]	further results
COc1ccc(CN2C3CC2CN(c2ccc(-c4nc(-c5cnn(C)c5)cc5ncccc45)cn2)C3)cc1N	166 nM	86.4 nM	176 nM	–	–
COc1ccc(CN2C3CC2CN(c2ccc(-c4nc(-c5ccc(F)cc5)cc5ncccc45)cn2)C3)cn1	242 nM	517 nM	408 nM	–	–
COc1ccc(CN2C3CC2CN(c2ccc(-c4nc(-c5cnn(C)c5)cc5ncccc45)cn2)C3)cc1Br	41.3 nM	13.7 nM	17.2 nM	107 nM	–
Cc1ccc(CN2C3CC2CN(c2ccc(-c4nc(-c5cnn(C)c5)cc5ncccc45)cn2)C3)cn1	12.5 nM	14.4 nM	16.2 nM	437 nM	–
COc1ccc(CN2C3CC2CN(c2ccc(-c4nc(Cl)cc5ncccc45)cn2)C3)cn1	69.3 nM	57.2 nM	58.4 nM	229 nM	–
COc1ccc(CN2C3CC2CN(c2ccc(-c4cc(OCC(C)(C)O)cn5ncc(C#N)c45)cn2)C3)cn1 [SELPERCATINIB]	–	–	–	–	IC50 (BaF3 [8]): 8.2 nM; IC50 (BaF3 [9]): 9.5 nM; IC50 (BaF3 [10]): 17.8 nM; IC50 (BaF3 [11]): 2170 nM; IC50 (BaF3 [12]): 896 nM; inhibition in vivo at 10 mg/kg (BaF3 [13]): 89%; inhibition in vivo at 10 mg/kg (BaF3 [14]): 20%
Cn1cc(-c2cc3ncccc3c(-c3ccc(N4CC5CC(C4)N5C(=O)CN4CCOCC4)nc3)n2)cn1	112 nM	121 nM	107 nM	–	–
Cn1cc(-c2cc3ncccc3c(-c3ccc(N4CC5CC(C4)N5C(=O)Cc4cc(F)cc(F)c4)nc3)n2)cn1	6.7 nM	4.7 nM	6.7 nM	221 nM	–
Cn1cc(-c2cc3ncccc3c(-c3ccc(N4CC5CC(C4)N5C(=O)Cc4cccc(F)c4)nc3)n2)cn1	4.8 nM	2.3 nM	3 nM	149 nM	–
Cn1cc(-c2cc3ncccc3c(-c3ccc(N4CC5CC(C4)N5C(=O)Cc4cccc(Cl)c4)nc3)n2)cn1	9.1 nM	4 nM	5.9 nM	180 nM	–
COc1ccc(CN2C3CC2CN(c2ccc(-c4cccc5ncccc45)cn2)C3)cn1	198 nM	285 nM	304 nM	–	–
COc1ccc(CN2C3CC2CN(c2ccc(-c4nc(-c5cnn(C)c5)cc5ncccc45)cn2)C3)cc1F	5.5 nM	0.3 nM	0.6 nM	37.8 nM	Ratio IC50 [7]: 6
COc1ccc(CN2C3CC2CN(c2ccc(-c4cccc5c4OCCO5)cn2)C3)cn1	> 1000 nM	> 1000 nM	> 1000 nM	–	–
COc1ccc(CN2C3CC2CN(c2ccc(-c4nc(-c5cnn(C)c5)cc5ncccc45)cn2)C3)cc1[N+](=O)[O-]	247 nM	95.2 nM	127 nM	–	–
Cn1cc(-c2cc3ncccc3c(-c3ccc(N4CC5CC(C4)N5C(=O)CC4CCOCC4)nc3)n2)cn1	62.2 nM	91.4 nM	54.9 nM	–	–
Cn1cc(-c2cc3ncccc3c(-c3ccc(N4CC5CC(C4)N5Cc4ccc(F)nc4)nc3)n2)cn1	16.8 nM	5.6 nM	9.3 nM	237 nM	–
